Assay results: patent EP0062321A2, “New cephem compounds, processes for their preparation, pharmaceutical compositions containing them and their starting compounds” (FUJISAWA PHARMACEUTICAL CO., LTD., priority 1981, dated 1982)
In brackets after ≈: the same amount, converted by molar mass.

Legend:
[1] = tested on: Pr.mirabilis 140; assay: Minimal inhibitory concentration (MIC) by agar dilution on heart infusion agar; format: cell-based; settings: Proteus mirabilis, HI-agar, one loopful of overnight culture in Trypticase-soy broth (10 viable cells per ml), 37°C for 20 hours
Method: (§1) Now in order to show the utility of the object compounds (I), test data on anti-microbial activity of representative compounds of the present invention are shown below.
(§2) One loopful of an overnight culture of each test strain in Trypticase-soy broth (10 viable cells per ml,) was streaked on heart infusion agar (HI-agar) containing graded concentrations of antibiotics, and the minimal inhibitory concentration (MIC) was expressed in terms of µg/ml after incubation at 37°C for 20 hours.

[2] = tested on: Pr.vulgaris IAM-1025; assay: as above; format: cell-based; settings: Proteus vulgaris, IAM1025, HI-agar, one loopful of overnight culture in Trypticase-soy broth (10 viable cells per ml), 37°C for 20 hours
Method: as §1, §2

Row | Compound | MIC [1] [µg/mL] | MIC [2] [µg/mL]
1 | CO/N=C(\C(=O)NC1C(=O)N2C(C(=O)[O-])=C(C[n+]3ccccn3)CSC12)c1nsc(N)n1 (stereo not drawn) [(3)] | 0.39 (≈ 0.818 µM) | 6.25 (≈ 13.1 µM)
2 | CCO/N=C(\C(=O)NC1C(=O)N2C(C(=O)[O-])=C(C[n+]3ccccn3)CSC12)c1nsc(N)n1 (stereo not drawn) [(2)] | 0.39 (≈ 0.795 µM) | 0.39 (≈ 0.795 µM)
3 | CCO/N=C(\C(=O)NC1C(=O)N2C(C(=O)[O-])=C(C[n+]3cccn3C)CSC12)c1nsc(N)n1 (stereo not drawn) [(1)] | 0.39 (≈ 0.792 µM) | 0.78 (≈ 1.58 µM)
